Measurements: PMC1660542, “Structure-based discovery of inhibitors of the YycG histidine kinase: New chemical leads to combat Staphylococcus epidermidis infections” (BMC Microbiology, 2006)
Values after ≈ are worked out from the molar mass of the structure shown. Read-outs that look alike come from different tables or passages of the source.

Assays:
[1] = target: T1, YycG' protein (Staphylococcus epidermidis, UniProt Q8CU87); assay: Inhibition of YycG' ATPase activity / autophosphorylation (Kinase-Glo Luminescent Kinase Assay); type: biochemical; conditions: 3 μM ATP
T1 construct: of YycG (370aa to 610aa) was amplified by PCR; His-tag (pET28a) (N); made in house; host or cells: E. coli BL21 (pET28a, pETYycG')
Method: The inhibitory activities of the compounds for the ATPase activity of the YycG' protein was measured using the Kinase-Glo™ Luminescent Kinase Assay (Promega, Madison, USA). Briefly, 4 μg YycG' protein was pre-incubated with a series of dilution of compounds in the reaction buffer (40 mM Tris [pH 7.5], 20 mM MgCl2, and 0.1 mg/ml BSA), at 25°C for 30 min. Then 3 μM ATP was added for another incubation of 30 min at 25°C, and Kinase-Glo™ Reagent was added to detect the rest amount of ATP, as recorded from luminescence measurements (RLU). In parallel, theYycG' protein with no addition of compounds was used as the control. The rate of inhibiting protein phosphorylation (Rp) by the compounds was calculated from equation 1:
Rp=RLU(YycG^′+compound+ATP+Reagent)−RLU(YycG^′+ATP+Reagent)/RLU(ATP+Reagent)−RLU(YycG^′+ATP+Reagent)×100% (1) MathType@MTEF@5@5@+=feaafiart1ev1aaatCvAUfKttLearuWrP9MDH5MBPbIqV92AaeXatLxBI9gBaebbnrfifHhDYfgasaacH8akY=wiFfYdH8Gipec8Eeeu0xXdbba9frFj0=OqFfea0dXdd9vqai=hGuQ8kuc9pgc9s8qqaq=dirpe0xb9q8qiLsFr0=vr0=vr0dc8meaabaqaciaacaGaaeqabaqabeGadaaakeaacqqGsbGudaWgaaWcbaGaeeiCaahabeaakiabg2da9maalaaabaGaeeOuaiLaeeitaWKaeeyvauLaeiikaGIaeeywaKLaeeyEaKNaee4yamMafe4raCKbauaacqGHRaWkcqqGJbWycqqGVbWBcqqGTbqBcqqGWbaCcqqGVbWBcqqG1bqDcqqGUbGBcqqGKbazcqGHRaWkcqqGbbqqcqqGubavcqqGqbaucqGHRaWkcqqGsbGucqqGLbqzcqqGHbqycqqGNbWzcqqGLbqzcqqGUbGBcqqG0baDcqGGPaqkcqGHsislcqqGsbGucqqGmbatcqqGvbqvcqGGOaakcqqGzbqwcqqG5bqEcqqGJbWycuqGhbWrgaqbaiabgUcaRiabbgeabjabbsfaujabbcfaqjabgUcaRiabbkfasjabbwgaLjabbggaHjabbEgaNjabbwgaLjabb6gaUjabbsha0jabcMcaPaqaaiabbkfasjabbYeamjabbwfavjabcIcaOiabbgeabjabbsfaujabbcfaqjabgUcaRiabbkfasjabbwgaLjabbggaHjabbEgaNjabbwgaLjabb6gaUjabbsha0jabcMcaPiabgkHiTiabbkfasjabbYeamjabbwfavjabcIcaOiabbMfazjabbMha5jabbogaJjqbbEeahzaafaGaey4kaSIaeeyqaeKaeeivaqLaeeiuaaLaey4kaSIaeeOuaiLaeeyzauMaeeyyaeMaee4zaCMaeeyzauMaeeOBa4MaeeiDaqNaeiykaKcaaiabgEna0kabigdaXiabicdaWiabicdaWiabcwcaLiaaxMaacaWLjaWaaeWaaeaacqaIXaqmaiaawIcacaGLPaaaaaa@A46C@
IC50 (the concentration of inhibition of 50% YycG' protein autophosphorylation) was obtained by using the Origin v7.0 software (OriginLab, Northampton, USA).

[2] = test system: SrrB'; assay: Inhibition of SrrB' autophosphorylation (Kinase-Glo); type: biochemical, S. epidermidis; conditions: compound 50 μM, 4 μg protein, 3 μM ATP
[3] = test system: S. epidermidis ATCC12228; assay: MIC assay (broth dilution in tubes, CLSI); type: cell-based, Staphylococcus epidermidis; conditions: for MIC: Staphylococcus epidermidis
Excerpt: (§1) Staphylococcus epidermidis ATCC12228 and RP62A strains were purchased from the American Type Culture Collection (ATCC, Manassas, USA). Staphylococcus aureus ATCC29213, Escherichia coli ATCC25922 and Pseudomonas aeruginosa ATCC27853 were kindly provided by Dr. Bijie Hu at Zhongshan Hospital (Shanghai, China). S. epidermidis strains se527, se886, se847, seG203, Streptococcus pyogenes strain 144, and Streptococcus mutans strain 128 were all clinical isolates from Zhongshan Hospital and Huashan Hospital (Shanghai, China). If not stated otherwise, S. epidermidis and S. aureus strains were grown at 37°C in tryptic soy broth (TSB, Oxoid) containing 0.25% glucose, E. coli and P. aeruginosa strains were grown at 37°C in Luria-Bertani (LB, Oxoid).
(§2) MIC assays for the antibacterial activities of the compounds were performed according to the broth micro-dilution (in tubes) method of the Clinical and Laboratory Standards Institute (CLSI) of America. The Minimal Bactericidal Concentration (MBC) was obtained by subculturing 100 μl from each negative (no visible bacterial growth) tube from the MIC assay, onto substance-free Mueller-Hinton agar plates. The plates were incubated at 37°C for 24 hours, and the MBC was defined as the lowest concentration of substance which produced subcultures growing no more than five colonies on each plate.

[4] = Cytotoxicity on Vero cell (MTT, Cell Proliferation Kit I); type: cell-based, African Green-monkey; conditions: African green monkey, Vero cells, highest concentration tested 200 μM
Method: (§3) Cytotoxicity of the antibacterial compounds on cultured Vero cell was measured by using the Cell Proliferation Kit I (MTT) (Roche, Indianapolis, USA) according to the manufacturer's protocol. Addition of DMSO (1%) in the medium produced a slight cytotoxicity on Vero cell, which could easily be corrected for. Each assay was performed in quadruplicate and repeated three times. The results were converted to percentage of the control (cells only treated with 1% DMSO) and CC50 (concentrations that produce a 50% cytotoxicity effect on Vero cell) was calculated by the Origin v7.0 software (OriginLab, Northampton, USA). Hemolytic activities of the compounds were determined by using healthy human erythrocytes. The erythrocytes were washed three times in sterile saline and resuspended to 5% prior to the assay. […] Cells without compound treatment and cells with 1% Triton-100 treatment were used as 0% and 100% hemolysis controls, respectively. The cell suspensions were incubated for 1 hour at 37°C and centrifuged at 1000×g for 10 min. Volumes of 100 μl supernatants were transferred to another sterile plate and hemoglobin release from the cells was determined at 570 nm. […] The hemolysis assays were repeated twice.

[5] = test system: S. pyogenes 144; assay: MIC assay (broth dilution in tubes, CLSI); type: cell-based, Streptococcus pyogenes; conditions: Streptococcus pyogenes; S. pyogenes 144; read-out: Minimal inhibitory concentration (MIC)
Excerpt: as §1, §2

[6] = test system: S. mutans 128; assay: MIC assay (broth dilution in tubes, CLSI); type: cell-based, Streptococcus mutans; conditions: Streptococcus mutans; S. mutans 128; read-out: Minimal inhibitory concentration (MIC)
Excerpt: as §1, §2

[7] = test system: S. epidermidis RP62A; assay: Minimal bactericidal concentration (MBC) assay; type: cell-based; conditions: Staphylococcus epidermidis; S. epidermidis RP62A; read-out: Minimal bactericidal concentration (MBC)
Method: as §2

[8] = test system: S. epidermidis ATCC12228; assay: Minimal bactericidal concentration (MBC) assay; type: cell-based; conditions: Staphylococcus epidermidis
Method: as §2

[9] = test system: S. aureus ATCC29213; assay: MIC assay (broth dilution in tubes, CLSI); type: cell-based, Staphylococcus aureus; conditions: Staphylococcus aureus; S. aureus ATCC29213; read-out: Minimal inhibitory concentration (MIC)
Excerpt: as §1, §2

[10] = Erythrocyte hemolysis assay; type: cell-based, human; conditions: human, erythrocytes (5% suspension), 1 hour, 37°C;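 further: compounds tested at their MIC and at 4× MIC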
Method: as §3

[11] = test system: S. epidermidis RP62A; assay: MIC assay (broth dilution in tubes, CLSI); type: cell-based; conditions: Staphylococcus epidermidis; S. epidermidis RP62A (biofilm-forming strain); read-out: Minimal inhibitory concentration (MIC)
Excerpt: as §1, §2

T1 sequence (Q8CU87 370-610): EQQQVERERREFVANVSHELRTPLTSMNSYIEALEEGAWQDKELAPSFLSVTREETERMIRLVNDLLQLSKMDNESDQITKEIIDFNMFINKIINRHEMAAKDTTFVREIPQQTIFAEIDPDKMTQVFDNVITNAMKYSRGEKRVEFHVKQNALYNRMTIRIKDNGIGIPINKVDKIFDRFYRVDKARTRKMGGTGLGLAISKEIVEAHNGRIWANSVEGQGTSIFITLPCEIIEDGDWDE

SMILES: Cc1ccc(NC(=O)CN2C(=O)S/C(=C\c3ccc(OCc4cccc(C(O)O)c4)cc3)C2=O)cc1 [Compound 7]
- IC50 ([1]; 4 μg YycG' protein, read-out: IC50 for YycG'): 6.5 µM
- inhibition at 50 µM ([1]; compound 50 μM, 4 μg protein, read-out: Inhibition of YycG' phosphorylation (decrease of ATPase activity)): 86%
- Inhibition of SrrB' phosphorylation [2]: 2%
- Antibacterial effectiveness ([3]; ATCC12228 versus RP62A): only effective against the non-biofilm-forming strain ATCC12228
- MIC ([3]; ATCC12228, Table 2, as tested on S. epidermidis ATCC 12228, read-out: MICs): 0.2 µM (≈ 0.101 µg/mL)
- MIC ([3]; S. epidermidis ATCC12228 (non-biofilm-forming strain), read-out: Minimal inhibitory concentration (MIC)): 0.2 µM (≈ 0.101 µg/mL)
- CC50 [4]: > 200 µM
- MIC [5]: > 200 µM
- MIC [6]: > 200 µM
- MBC [7]: > 400 µM
- MBC [8]: > 400 µM
- MIC [9]: > 200 µM
- hemolysis at 1 h ([10]; at 4 × MIC (number in parenthesis)): < 0.1%
- hemolysis at 1 h ([10]; at MIC for S. epidermidis ATCC12228): < 0.1%
- MIC [11]: > 200 µM
